Assay [1] concerns human epidermoid carcinoma cell line A-253 (ATCC HTB 41). The experiment in a line: MTT assay, human epidermoid carcinoma cell line. In kind it is cell-based. To be noted: read-out: IC50 Human Epidermoid Carcinoma Cells ATCC # HTB 41. Here is the method:
The MTT assay was used as a model to measure the inhibitory effects of the compounds of Formula I. The MTT assay is considered the most convenient modern assay for the determination of cell viability and cell proliferation. An MTT assay kit is commercially available (Chemicon International Inc., Temecula, Calif.). The MTT assay was performed according to manufacturer's instructions as outlined below.
A human epidermoid carcinoma cell line, designated as A-253 (ATCC HTB 41), was obtained in frozen vials from the American Type Culture Collection, Rockville, Md. Monolayer cultures were established from the vials by growth in RPMI 1640 medium supplemented with 10% fetal bovine serum (heat-inactivated), 2 mM L-glutamine, and pen-strep (100 units/ml; 100 μg/ml). The cultures were incubated at 37±1.5° C. in 5±1% CO2 in humidified air and were passaged weekly to avoid overgrowth. The laboratory cultures used for the present study were at passage seven after receipt of frozen stocks from ATCC.
Compounds of Formula I in powder form were stored at room temperature in plastic micro centrifuge tubes. Each tube was placed in a plastic bag containing desiccant. Each test compound was prepared as a 2 mg/ml solution in RPMI 1640 medium (non-supplemented) on the day of use, and the appropriate dilutions were prepared with the same vehicle.
Each compound was handled by sterile techniques in Class II, Type B biological safety cabinets.
The reference control compound was methotrexate at concentrations of 0.5 μg/ml to 50 μg/ml. A 1 mg/ml stock was prepared on the day of dosing and diluted to the appropriate concentrations using RPMI 1640 medium (non-supplemented).
A blank control was included in the MTT assay in order to determine the absorbance associated with the absence of any cells. This control was RPMI 1640 culture medium carried through the same procedures used to culture the cells in the microwell plates and to conduct the MTT assay color development. The microwell plate reader was zeroed against the blank control prior to recording the absorbance in the test wells.
Laboratory monolayer cultures of A-253 cells were trypsinized and seeded at a concentration of 24,000 cells in 0.05 ml of complete RPMI 1640 culture medium per well in 96-well plates. Eight wells in a column were seeded for each test condition. The blank control was prepared by adding 0.05 ml of culture medium (no cells) to 8 wells in the first column of each plate. A separate microwell plate was used for each compound of Formula I.
The test compound treatments were initiated immediately after seeding the cells by adding 0.05 ml of treatment medium to each microwell. Ten different test compound concentrations were prepared in culture medium (without serum), and each concentration was applied to a volume of eight wells on the appropriate plate. The final concentrations in the wells were 1000, 500, 250, 100, 50, 25, 10, 5, 2.5, and 1 μg/ml.
An untreated (zero-dose) condition was included as a column of 8 wells on each plate. The zero-dose and blank control wells received 0.05 ml of culture medium (without serum). The microwell plates were placed in an incubator at 37±1.5° C. in 5% CO2 in humidified air for an exposure period of 72±0.5 hours.
After the exposure period, 0.1 ml of MTT dye solution (0.5 mg/ml in serum free RPMI 1640 medium) was added to each micowell. The cultures were returned to the incubator for 2±0.1 hours. Then the medium was removed from each well and placed into a clean microwell plate for temporary storage. A volume of 0.1 ml of color development solution (Solution C, isopropanol with 0.04M HCl, Chemicon MTT Assay kit, Chemicon International Inc., Temecula, Calif.) was added to each new microwell. The contents were carefully mixed and allowed to sit at room temperature for approximately 1 hour. The medium that was saved from each microwell then was pipetted back into the well from which it originally came. […]
Background: Formazan colour is commonly taken as a measure of viable cells.

The subject of assay [2] is aminoacyl-tRNA synthetases (aaRS) isolated from HeLa cells. In words: IC50 determination, aaRS charging and trichloroacetic acid precipitation assay, aaRS partially purified from HeLa cell extracts. The conditions noted are these: preincubation 20 minutes at 25° C., reaction 5-20 minutes. In kind it is biochemical. Here is the method: IC50 determinations for the aminoacyl-tRNA synthetases (aaRS) isolated from HeLa cells were carried out using a modification of the aaRS charging and trichloroacetic acid precipitation assay described previously (see examples: D. Kern et. al., Biochemie, 61, 1257-1272 (1979) and J. Gilbart et. al. Antimicrobial Agents and Chemotherapy, 37(1), 32-38 (1993)). […] For practical purposes, the minimal acceptable value is approximately 2000 cpm per 10 minute reaction. The final dilution of the HeLa extract in the assays for the aaRS enzymes varies from 50 to 1200-fold.
Test compounds were typically present as serial dilutions in concentrations ranging from 0.35 nM to 35 μM. Test compound solutions were prepared by dissolving test compounds in 100% dimethyl sulfoxide and diluting to the final concentration with 50 mM HEPES, pH 7.5. IC50 determinations were typically performed in duplicate with each experiment containing 4-8 concentrations of test compound and with duplicate controls containing no inhibitor.
The reaction was incubated at 25° C. for 5-20 minutes. At specified time points a 15 microliter aliquot was removed and added to a well of a Millipore filtration plate (Multiscreen-FB, MAFB NOB 10) containing 100 microliters of cold 5% (wt/vol) trichloroacetic acid. Trichloroacitic acid precipitable material was collected by filtration on a Millipore Multiscreen filtration station, washed twice with cold 5% trichloroacetic acid, twice with water, and dried. Plates were typically allowed to air dry for several hours or baked at 50° C. in a vacuum oven for 30 minutes. The radioactivity on the dried plates was quantitated by the addition of Packard Microscint-20 to the wells and counting with a Packard TopCount scintillation counter.
Inhibitor activity typically was reported as a percentage of the control aaRS activity. […] The IC50 (in nM, Hela Cells) values of representative compounds of the present invention are listed in column 5 of Table I.

The subject of assay [3] is normal human skin fibroblasts cell line ATCC CRL 1501. In words: MTT assay, normal skin fibroblasts. In kind it is cell-based. To be noted: Skin fibroblast, similar manner to HTB 41 assay.
Method: The MTT assay was used as a model to measure the inhibitory effects of the compounds of Formula I. The MTT assay is considered the most convenient modern assay for the determination of cell viability and cell proliferation. […] The MTT assay was performed according to manufacturer's instructions as outlined below.
The cultures were returned to the incubator for 2±0.1 hours. Then the medium was removed from each well and placed into a clean microwell plate for temporary storage. A volume of 0.1 ml of color development solution (Solution C, isopropanol with 0.04M HCl, Chemicon MTT Assay kit, Chemicon International Inc., Temecula, Calif.) was added to each new microwell. […] The absorbance at 540 nm wavelength was determined in a microwell plate reader within two hours of the final preparation of the plates.
The absorbance at 540 nm was recorded for each well by the microwell plate reader after the instrument was zeroed against the blank controls for each plate. The mean absorbance for each test condition was calculated and compared to the mean absorbance for the zero-dose wells in order to obtain percent values. […]
Assay [4] concerns Gram positive bacterial pathogens such as Staphylococcus aureus. The conditions noted are these: cited from earlier work.
In assay [5] the test system is isoleucyl-tRNA synthetase. The conditions noted are these: cited from earlier work.
The mark [6] stands for this setting: A253, MTT assay, exposure 72 hours, plot extended by eye for compounds active at lowest dose.

Like-named read-outs stand apart in the source and are kept apart here.

In general, IC50 refers to the concentration that inhibits the measured activity by half. Turning to `CC1=C(/C=C/C(C)=C/C=C/C(C)=C/C(=O)O)C(C)(C)CCC1` [Retinoic acid, reference compound], in assay [1] (A253, 72 h), the IC50 came out at 266000 nM.
With `Nc1ncnc2c1ncn2[C@@H]1O[C@H](CNS(=O)(=O)NC(=O)[C@@H]2CCCN2)[C@@H](O)[C@H]1O` [XV], the results for the IC50 in assay [2] and in assay [1] (setting [6]) were 1 nM and 900 nM, respectively.
On to `CC(C)C[C@H](N)C(=O)NS(=O)(=O)NC[C@H]1O[C@@H](n2cnc3c(N)ncnc32)[C@H](O)[C@@H]1O` [III], for which the results for the IC50 in assay [2], in assay [3] and in assay [1] (setting [6]) were 0.5 nM, 13 µM and 1370 nM, respectively.
As to `C[C@@H](O)[C@H](N)C(=O)NS(=O)(=O)NC[C@H]1O[C@@H](n2cnc3c(N)ncnc32)[C@H](O)[C@@H]1O` [XVIII], the values for the IC50 in assay [2] and in assay [1] (setting [6]) were 40 nM and 9630 nM, respectively.
For `NC(=O)CC[C@H](N)C(=O)NS(=O)(=O)NC[C@H]1O[C@@H](n2cnc3c(N)ncnc32)[C@H](O)[C@@H]1O` [XVI], the IC50 in assay [2] stood at 400 nM; in assay [1] (setting [6]) it was 3590 nM.
In the case of `NCCCC[C@H](N)C(=O)NS(=O)(=O)NC[C@H]1O[C@@H](n2cnc3c(N)ncnc32)[C@H](O)[C@@H]1O` [Compound XI], the IC50 in assay [2] stood at 8 nM; in assay [1] (setting [6]) it was 2530 nM.
`Nc1ncnc2c1ncn2[C@@H]1O[C@H](CNS(=O)(=O)NC(=O)[C@@H](N)CCC(=O)O)[C@@H](O)[C@H]1O` [XII]: the half-inhibitory concentration (IC50) in assay [1] (setting [6]) was 10500 nM.
As for `CN(Cc1cnc2nc(N)nc(N)c2n1)c1ccc(C(=O)N[C@@H](CCC(=O)O)C(=O)O)cc1` [Methotrexate, reference compound], the concentration for half-maximal inhibition (IC50) in assay [1] (A253, 72 h) turned out to be 40 nM.
On to `Nc1ncnc2c1ncn2[C@@H]1O[C@H](CNS(=O)(=O)NC(=O)[C@@H](N)Cc2ccc(O)cc2)[C@@H](O)[C@H]1O` [V], for which the figures for the concentration for half-maximal inhibition (IC50) in assay [2] and in assay [1] (setting [6]) were 17 nM and 790 nM, respectively.
With `C[C@H](N)C(=O)NS(=O)(=O)NC[C@H]1O[C@@H](n2cnc3c(N)ncnc32)[C@H](O)[C@@H]1O` [VII], the IC50 stood at 22 nM in assay [2] and 1440 nM in assay [1] (setting [6]).
With `Nc1ncnc2c1ncn2[C@@H]1O[C@H](CNS(=O)(=O)NC(=O)[C@@H](N)CC(=O)O)[C@@H](O)[C@H]1O` [VIII], the results for the IC50 in assay [2] and in assay [1] (setting [6]) were 174 nM and 5000 nM, respectively.
As for `CC(C)[C@H](N)C(=O)NS(=O)(=O)NC[C@H]1O[C@@H](n2cnc3c(N)ncnc32)[C@H](O)[C@@H]1O` [II], the IC50 came to 27 nM in assay [2] and 4950 nM in assay [1] (setting [6]).
For `N=C(N)NCCC[C@H](N)C(=O)NS(=O)(=O)NC[C@H]1O[C@@H](n2cnc3c(N)ncnc32)[C@H](O)[C@@H]1O` [XVII], the IC50 in assay [2] was found to be 14 nM; in assay [1] (setting [6]), 3990 nM.
As to `CSCC[C@H](N)C(=O)NS(=O)(=O)NC[C@H]1O[C@@H](n2cnc3c(N)ncnc32)[C@H](O)[C@@H]1O` [IV], the IC50 in assay [2] was 3 nM; in assay [1] (setting [6]), 1050 nM.
The corresponding values for `NCC(=O)NS(=O)(=O)NC[C@H]1O[C@@H](n2cnc3c(N)ncnc32)[C@H](O)[C@@H]1O` [IX] are 50 nM and 1490 nM.
As for `Nc1ncnc2c1ncn2[C@@H]1O[C@H](CNS(=O)(=O)NC(=O)[C@@H](N)CO)[C@@H](O)[C@H]1O` [VI, 5'-deoxy-adenosine 5'-N-(N-L-seryl)sulfamide], the IC50 in assay [2] amounted to 140 nM; in assay [1] (setting [6]) it was 9250 nM.
In the case of `Nc1ncnc2c1ncn2[C@@H]1O[C@H](CNS(=O)(=O)NC(=O)[C@@H](N)Cc2c[nH]c3ccccc23)[C@@H](O)[C@H]1O` [Compound X, 5'-deoxy-adenosine 5'-N-(N-L-tryptophanyl)sulfamide], the IC50 in assay [2] came to 300 nM; in assay [3], 0.08 µM; in assay [1] (setting [6]), 530 nM.
As for `CC[C@H](C)[C@H](N)C(=O)NS(=O)(=O)NC[C@H]1O[C@@H](n2cnc3c(N)ncnc32)[C@H](O)[C@@H]1O` [I], the concentration for half-maximal inhibition (IC50) in assay [2] worked out at 0.9 nM; in assay [1] (setting [6]) it was 3050 nM.
Take `Nc1ncnc2c1ncn2[C@@H]1O[C@H](CNS(=O)(=O)NC(=O)[C@@H](N)Cc2c[nH]cn2)[C@@H](O)[C@H]1O` [XIII]: the IC50 worked out at 2 nM in assay [2] and 2690 nM in assay [1] (setting [6]).
Regarding `CC(=CC(=O)OCCCCCCCCC(=O)O)CC1OCC(CC2OC2C(C)C(C)O)C(O)C1O` (stereo not drawn) [Pseudomonic acid A], in assay [4], the “inhibition of protein synthesis and growth” value was “inhibition of protein synthesis, followed by growth inhibition”. The “inhibition of isoleucyl adenylate formation” value in assay [5] was “inhibits isoleucyl adenylate formation”.
